Like-named read-outs stand apart in the source and are kept apart here.

In assay [1] the target is T1, Kir6.1/SUR2B (Homo sapiens, UniProt O60706).
T1 construct: expressed in transfected cells; also transiently transfected HEK293T
The experiment in a line: Thallium flux assay of Kir6.1/SUR2B in HEK293 cells. Type of assay: cell-based. Conditions: for Kir6.1/SUR2B inhibition, SAR in words: modification of the right side thiophene. The source says: The pcDNA3.1-SUR2B plasmid was generously provided by Dr. Colin Nichols (Washington University). […] Stably transfected tetracycline-regulated expression human embryonic kidney-293 (T-Rex-HEK293) cells expressing both plasmids were generated by cotransfecting cells with Lipofectamine LTX followed by antibiotic selection and clonal selection using the thallium flux assay described below. […] The cell culture media contained Dulbecco's modified Eagle's medium (Gibco, 11965-092) supplied with heat-inactivated FBS (bio-techne, Minneapolis, MN […],10%), Blasticidine HCl (Gibco, A11139-03, 10 ug/mL), Penicillin-Streptomycin (Gibco, 15140-122, 2 mM), G418 Sulfate (CORNING, Corning, NY, 30-234-CR, 1 mg/mL), and Hygromycin B (Invitrogen, Carlsbad, CA, 10687-010, 250 ug/mL). For selectivity assays, HEK293T cells were cotransfected with Kir6.x and SURX with Lipofectamine LTX and incubated for 48 hours before thallium flux assays. […] [[…] et al., 2019]). […] Dye-loaded cells were washed with assay buffer and transferred to a Panoptic Kinetic Imaging Plate Reader (Wavefront Bioscience, Franklin, TN). Control and test compound treatments were for 4 minutes prior to adding 0.5 mM chloride-free thallium stimulus buffer (Ion Bioscience) to initiate thallium flux. […] Selectivity assays against other Kir channels were performed essentially as described previously ([[…] et al., 2018]; [[…] al., 2022]). […] Data were acquired using Panoptic Software, Waveguide (Wavefront Biosciences). Raw fluorescence values were imported for analysis into custom software (VICB, Vanderbilt University). Fluorescence versus time values for each well were normalized to the initial fluorescence value [F/F0]. […] CRC data were plotted in GraphPad Prism (GraphPad Software, San Diego, CA) and fitted with a four-parameter logistic model to determine IC50 values for rank-ordering hit potency.

Assay [2] relates to isolated mouse ductus arteriosus vessels. The experiment in a line: Pressure myography of isolated ductus arteriosus vessels. As to conditions: term gestation mouse DA. On the procedure:
CD-1 mice were maintained at Vanderbilt University Medical Center in accordance with protocols approved by the Institutional Animal Care and Use Committee. Timed matings were performed to produce offspring at specific stages of development. The presence of a vaginal plug was designated as embryonic day 1.
Term-gestation (embryonic day 19) fetal mouse DAs were isolated and mounted on glass pipet tips in microvessel perfusion chambers as previously reported ([Hooper et al., 2016]). Deoxygenated Krebs buffer was warmed to 37°C and circulated throughout the chamber. Vessels were pressurized in a stepwise manner to physiologic neonatal mouse mean arterial pressure (20 mmHg) and then challenged with 50 mM KCl to test reactivity. […] For dose-response studies, vessels were first dilated by circulating Krebs buffer bubbled with 95% nitrogen, 5% CO2 to mimic the hypoxic conditions of the womb. […] Following each dose, lumen diameters were allowed to plateau (approximately 20 minutes) before the next dose was added. Continuous lumen diameter measurements were recorded using a digital image capture system (IonOptix). An N of >6 vessels from at least three different litters was used for each experimental condition. Changes in lumen diameter are represented as the percent change in diameter compared with the baseline lumen diameter of vessels prior to drug exposure. […] Values represent mean ± S.D.

The target of assay [3] is T2, Kir6.2/SUR1 (Homo sapiens, UniProt Q09428).
T2 construct: expressed in transfected cells; also transiently transfected HEK293T
The experiment in a line: Thallium flux assay of Kir6.2/SUR1 in HEK293 cells. Type of assay: cell-based. As to conditions: T-Rex-HEK293-Kir6.2/SUR1 cells. As to the method:
The pcDNA3.1-SUR2B plasmid was generously provided by Dr. Colin Nichols (Washington University). The pcDNA5/TO-Kir6.1 plasmid was synthesized by GenScript. […] For selectivity assays, HEK293T cells were cotransfected with Kir6.x and SURX with Lipofectamine LTX and incubated for 48 hours before thallium flux assays.
Stable T-Rex-HEK293-Kir6.1/SUR2B cells or transiently transfected HEK293T cells were plated in polyamine-coated, clear-bottomed, black-walled 384-well plates and were cultured (37°C/5% CO2) overnight in Dulbecco’s modified Eagle’s medium (Gibco, Carlsbad, CA, 11995-065) containing 10% FBS (2 mM Penicillin-Streptomycin). The following day, cells were washed with assay buffer (i.e., Hanks’ balanced salt solution/20 mM HEPES) and loaded for 1 hour with thallium sensor dye Brilliant Thallium (Ion Bioscience, San Marcos, TX) at room temperature. Dye-loaded cells were washed with assay buffer and transferred to a Panoptic Kinetic Imaging Plate Reader (Wavefront Bioscience, Franklin, TN). Control and test compound treatments were for 4 minutes prior to adding 0.5 mM chloride-free thallium stimulus buffer (Ion Bioscience) to initiate thallium flux.

The mark [4] stands for this setting: pinacidil-activated, read-out: Kir6.1/SUR2B IC50.

T1 sequence (O60706 1-1549 isoform O60706-2, species assumed): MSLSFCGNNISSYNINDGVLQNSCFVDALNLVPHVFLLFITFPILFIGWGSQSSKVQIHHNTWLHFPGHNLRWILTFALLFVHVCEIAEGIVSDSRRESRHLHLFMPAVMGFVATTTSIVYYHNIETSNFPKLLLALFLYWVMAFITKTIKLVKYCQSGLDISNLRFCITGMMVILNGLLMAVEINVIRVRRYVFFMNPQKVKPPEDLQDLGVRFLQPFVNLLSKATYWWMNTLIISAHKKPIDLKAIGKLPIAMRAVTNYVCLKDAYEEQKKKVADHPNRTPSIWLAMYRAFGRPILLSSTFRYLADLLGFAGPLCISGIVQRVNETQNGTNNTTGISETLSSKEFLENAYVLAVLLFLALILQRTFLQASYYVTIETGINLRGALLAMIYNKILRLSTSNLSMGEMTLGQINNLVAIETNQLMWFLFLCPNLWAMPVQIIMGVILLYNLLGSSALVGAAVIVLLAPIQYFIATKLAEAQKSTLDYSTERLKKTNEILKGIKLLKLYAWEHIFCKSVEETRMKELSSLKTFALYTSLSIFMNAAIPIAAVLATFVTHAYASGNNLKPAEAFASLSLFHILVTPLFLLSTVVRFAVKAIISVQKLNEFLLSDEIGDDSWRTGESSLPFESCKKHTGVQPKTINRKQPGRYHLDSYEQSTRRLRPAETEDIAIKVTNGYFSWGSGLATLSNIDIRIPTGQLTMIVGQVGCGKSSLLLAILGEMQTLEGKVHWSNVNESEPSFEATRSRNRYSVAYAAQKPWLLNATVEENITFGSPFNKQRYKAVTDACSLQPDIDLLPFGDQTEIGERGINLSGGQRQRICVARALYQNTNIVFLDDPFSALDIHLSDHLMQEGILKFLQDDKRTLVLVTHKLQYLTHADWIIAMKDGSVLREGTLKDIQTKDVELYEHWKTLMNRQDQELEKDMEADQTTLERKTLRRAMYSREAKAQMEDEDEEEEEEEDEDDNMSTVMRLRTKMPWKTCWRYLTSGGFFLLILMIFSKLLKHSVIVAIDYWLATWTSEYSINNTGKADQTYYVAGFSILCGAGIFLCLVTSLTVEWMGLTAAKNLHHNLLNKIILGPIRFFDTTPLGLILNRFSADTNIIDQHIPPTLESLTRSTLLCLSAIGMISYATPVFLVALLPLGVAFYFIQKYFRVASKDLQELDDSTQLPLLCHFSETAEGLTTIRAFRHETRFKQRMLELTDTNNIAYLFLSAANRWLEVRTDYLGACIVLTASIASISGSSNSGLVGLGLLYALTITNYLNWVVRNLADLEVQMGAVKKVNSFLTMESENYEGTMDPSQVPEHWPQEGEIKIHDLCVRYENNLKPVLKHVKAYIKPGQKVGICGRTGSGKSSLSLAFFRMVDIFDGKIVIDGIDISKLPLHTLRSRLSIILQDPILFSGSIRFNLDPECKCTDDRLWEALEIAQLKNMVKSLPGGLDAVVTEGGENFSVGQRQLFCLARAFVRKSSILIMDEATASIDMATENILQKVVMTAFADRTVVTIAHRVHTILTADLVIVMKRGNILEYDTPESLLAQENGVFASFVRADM
T1 sequence (Q15842 whole entry partner, species assumed): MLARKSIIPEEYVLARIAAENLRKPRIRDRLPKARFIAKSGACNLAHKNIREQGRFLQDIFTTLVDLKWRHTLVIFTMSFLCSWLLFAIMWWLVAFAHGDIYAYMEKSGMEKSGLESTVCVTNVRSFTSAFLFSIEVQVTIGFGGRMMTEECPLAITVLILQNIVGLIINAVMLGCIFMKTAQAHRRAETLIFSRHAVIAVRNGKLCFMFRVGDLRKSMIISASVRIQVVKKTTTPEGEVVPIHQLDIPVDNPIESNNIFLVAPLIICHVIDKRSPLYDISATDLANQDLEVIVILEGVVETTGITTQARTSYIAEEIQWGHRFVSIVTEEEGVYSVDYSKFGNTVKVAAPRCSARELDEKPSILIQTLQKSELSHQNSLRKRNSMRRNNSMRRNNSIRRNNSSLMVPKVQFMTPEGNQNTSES
T2 sequence (Q09428 whole entry, species assumed): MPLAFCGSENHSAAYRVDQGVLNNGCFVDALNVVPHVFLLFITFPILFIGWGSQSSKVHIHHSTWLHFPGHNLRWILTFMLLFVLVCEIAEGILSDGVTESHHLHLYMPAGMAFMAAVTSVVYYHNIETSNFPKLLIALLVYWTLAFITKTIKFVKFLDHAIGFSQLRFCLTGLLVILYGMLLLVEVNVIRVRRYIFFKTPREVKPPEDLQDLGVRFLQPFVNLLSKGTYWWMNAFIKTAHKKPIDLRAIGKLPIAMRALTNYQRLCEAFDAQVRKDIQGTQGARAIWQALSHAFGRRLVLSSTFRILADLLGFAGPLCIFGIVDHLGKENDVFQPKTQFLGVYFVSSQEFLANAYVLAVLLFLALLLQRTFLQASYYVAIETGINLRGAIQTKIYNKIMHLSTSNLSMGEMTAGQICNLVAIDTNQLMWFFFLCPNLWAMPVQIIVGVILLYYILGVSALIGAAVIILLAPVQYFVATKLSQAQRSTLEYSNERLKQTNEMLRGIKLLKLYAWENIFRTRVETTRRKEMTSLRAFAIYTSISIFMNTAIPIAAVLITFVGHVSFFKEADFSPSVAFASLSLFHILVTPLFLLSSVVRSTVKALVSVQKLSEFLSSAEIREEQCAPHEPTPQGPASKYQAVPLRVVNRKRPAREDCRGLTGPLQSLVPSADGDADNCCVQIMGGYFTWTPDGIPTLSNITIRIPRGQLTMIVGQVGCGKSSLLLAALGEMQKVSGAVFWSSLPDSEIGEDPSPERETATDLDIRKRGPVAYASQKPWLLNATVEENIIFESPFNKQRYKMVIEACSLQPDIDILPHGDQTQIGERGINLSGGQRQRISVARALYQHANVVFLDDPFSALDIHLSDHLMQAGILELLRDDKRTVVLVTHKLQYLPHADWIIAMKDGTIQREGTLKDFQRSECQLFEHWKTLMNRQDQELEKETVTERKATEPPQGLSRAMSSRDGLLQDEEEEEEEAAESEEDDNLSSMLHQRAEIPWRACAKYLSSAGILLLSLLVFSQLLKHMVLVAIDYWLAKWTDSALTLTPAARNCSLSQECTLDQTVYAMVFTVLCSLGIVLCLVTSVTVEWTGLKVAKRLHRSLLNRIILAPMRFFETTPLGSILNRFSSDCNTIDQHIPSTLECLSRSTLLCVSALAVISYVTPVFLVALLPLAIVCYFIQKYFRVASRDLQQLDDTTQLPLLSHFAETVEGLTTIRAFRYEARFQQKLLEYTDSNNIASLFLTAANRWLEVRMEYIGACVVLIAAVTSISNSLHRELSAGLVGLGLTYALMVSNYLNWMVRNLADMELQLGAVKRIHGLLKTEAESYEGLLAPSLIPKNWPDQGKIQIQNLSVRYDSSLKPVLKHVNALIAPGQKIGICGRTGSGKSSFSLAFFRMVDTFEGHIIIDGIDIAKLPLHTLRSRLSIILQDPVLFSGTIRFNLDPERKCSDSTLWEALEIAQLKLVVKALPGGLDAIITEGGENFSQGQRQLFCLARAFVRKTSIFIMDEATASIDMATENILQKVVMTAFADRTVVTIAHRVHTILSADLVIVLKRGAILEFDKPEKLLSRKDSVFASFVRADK
T2 sequence (Q14654 whole entry partner, species assumed): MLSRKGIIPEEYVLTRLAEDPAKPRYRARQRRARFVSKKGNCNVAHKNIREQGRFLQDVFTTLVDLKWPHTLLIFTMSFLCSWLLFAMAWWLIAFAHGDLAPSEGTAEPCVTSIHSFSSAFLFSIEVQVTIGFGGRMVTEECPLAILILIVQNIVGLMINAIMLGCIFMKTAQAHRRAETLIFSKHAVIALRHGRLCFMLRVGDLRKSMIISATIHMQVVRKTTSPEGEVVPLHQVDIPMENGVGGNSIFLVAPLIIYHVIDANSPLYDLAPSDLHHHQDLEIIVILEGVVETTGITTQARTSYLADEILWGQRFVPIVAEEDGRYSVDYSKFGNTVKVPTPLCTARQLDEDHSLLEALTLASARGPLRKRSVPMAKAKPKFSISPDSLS

In the case of `Cc1nc(-c2ccccc2F)sc1CNC(=O)Nc1cccs1` [compound 5], the IC50 in assay [1] (setting [4]) came out at 545 nM. For `Cc1nc(-c2cccs2)sc1CNC(=O)Nc1cccnc1` [compound 6], the “Kir6.1/SUR2B inhibition, SAR in words” value in assay [1] is reported as “very weak”. The IC50 in assay [1] (setting [4]) was 1620 nM. The corresponding values for `Cc1nc(-c2cccs2)sc1CNC(=O)Nc1ccncc1` [compound 7] are “very weak” and 12600 nM. `O=C(NCc1cc(-c2ccncc2)n(C2CCCC2)n1)Nc1cccs1` [compound 8]: the IC50 in assay [1] (setting [4]) amounted to 527 nM. Still for that read-out and setting: next, `Cn1nc(CNC(=O)Nc2cccs2)cc1-c1ccncc1` [compound 9]: 6130 nM. For the compound `Cn1nc(CNC(=O)Nc2cccc(C(F)(F)F)c2)cc1-c1ccncc1` [compound 10], the IC50 in assay [1] (setting [4]) turned out to be 857 nM. The same measure, in the same setting: next, `O=C(NCC1(c2ccc(F)cc2)CC1)Nc1cccs1` [compound 11]: 987 nM; `Cn1nc(CNC(=O)Nc2cccs2)c2ccccc2c1=O` [compound 12]: 780 nM. Consider `COc1ccc(Cl)cc1C(=O)NCCc1ccc(S(=O)(=O)NC(=O)NC2CCCCC2)cc1` [glibenclamide, reference compound], for which the IC50 in assay [1] (transfected HEK-293 cells, pinacidil activation, read-out: Kir6.1/SUR2B IC50 (Fig. 4C)) amounted to 115 nM. In addition, the “ductus arteriosus vessel constriction” value in assay [2] (increasing concentrations, compound alone) is recorded as “constricted in a concentration-dependent manner”. For the same compound, the “ductus arteriosus vessel constriction in the presence of pinacidil” value in assay [2] (with 10 µM pinacidil) is listed as “substantially blunted vasoconstrictive effects”. Turning to `CC(N/C(=N\C#N)Nc1ccncc1)C(C)(C)C` (centres unmarked) [pinacidil, reference compound], the “effect on Kir6.2/SUR1 thallium flux (opening)” value in assay [3] is listed as “no effect”.

The values above are taken from PMC10877733, “Discovery and Characterization of VU0542270, the First Selective Inhibitor of Vascular Kir6.1/SUR2B KATP Channels” (Molecular Pharmacology, 2024).
